Assay results taken from ChEMBL document CHEMBL1129118, “New heteroaryl-spaced phosphono -amino acids are competitive NMDA antagonists with analgesic activity” (Bioorg Med Chem Lett, 1996).
pKi: −log10 of the molar value.

How the values were obtained:
Glutamate NMDA receptor = test: Binding affinity to the glutamate site of the NMDA receptor was measured by competitive inhibition of binding of [3H]-CGP- 39653 to rat or porcine cerebral cortex membranes; type: cell membranes, Membrane
Mus musculus [1] = test: Analgesic activity was evaluated in the mouse formalin test (20 umol/kg 1 % formaldehyde injected into a hind paw, licking of the paw scored 15-30 min after formalin injection); type: functional
Mus musculus [2] = test: Analgesic activity was evaluated in the mouse formalin test (20 uM/Kg 1% formaldehyde injected into a hind paw, licking of the paw scored 15-30 min after formalin injection); type: functional
Mus musculus [3] = test: Tested for its analgesic activity in the mouse formalin test (20 umol/kg 1 % formaldehyde injected into a hind paw, licking of the paw scored 15-30 min after formalin injection); type: functional

| pKi (Glutamate NMDA receptor) | SMILES | further results |
| --- | --- | --- |
| 6.37 | Cc1cc2cc(CP(=O)(O)O)c(C[C@H](N)C(=O)O)nc2cc1C |  |
| 8.30 | N[C@H](Cc1nc2cc(Cl)c(Cl)cc2cc1CP(=O)(O)O)C(=O)O |  |
| 6.85 | NC(Cc1cc2ccccc2cc1CP(=O)(O)O)C(=O)O (stereo unspecified) |  |
| 7.74 | N[C@H](Cc1nc2cc(Cl)c(Cl)cc2n1CP(=O)(O)O)C(=O)O |  |
| 7.13 | N[C@H](Cc1nc2ncccc2cc1CP(=O)(O)O)C(=O)O |  |
| 5.57 | NC(Cc1oc2ccccc2c1CP(=O)(O)O)C(=O)O (stereo unspecified) |  |
| 7.54 | N[C@H](Cc1nc2c(Cl)cc(Cl)cc2cc1CP(=O)(O)O)C(=O)O |  |
| 6.14 | N[C@H](Cc1nc2ccncc2cc1CP(=O)(O)O)C(=O)O |  |
| 7.54 | O=C(O)[C@@H]1C[C@H](CP(=O)(O)O)CCN1 (relative stereo) [SELFOTEL] |  |
| 6.92 | N[C@H](Cc1nc2cccc(Cl)c2cc1CP(=O)(O)O)C(=O)O |  |
| 6.85 | N[C@H](Cc1nc2ccc(F)cc2cc1CP(=O)(O)O)C(=O)O |  |
| 6.02 | COc1cc2cc(CP(=O)(O)O)c(C[C@@H](N)C(=O)O)nc2cc1OC |  |
| 6.91 | N[C@H](Cc1nc2ccccc2cc1CP(=O)(O)O)C(=O)O |  |
| 7.27 | Cc1ccc2cc(CP(=O)(O)O)c(C[C@@H](N)C(=O)O)nc2c1 |  |
| 8.47 | NC(Cc1nc2cc(Cl)c(Cl)cc2nc1CP(=O)(O)O)C(=O)O (stereo unspecified) |  |
| 8.40 | CCc1cc2cc(CP(=O)(O)O)c(C[C@@H](N)C(=O)O)nc2cc1CC |  |
| 7.89 | CCC/C(=C\C(N)C(=O)O)CP(=O)(O)O (stereo unspecified) |  |
| 8.40 | Cc1cc2cc(CP(=O)(O)O)c(C[C@@H](N)C(=O)O)nc2cc1Cl |  |

| SMILES | pKi (Glutamate NMDA receptor) | further results |
| --- | --- | --- |
| Cc1cc2cc(CP(=O)(O)O)c(C[C@@H](N)C(=O)O)nc2cc1C | 8.30 | ED50 (Mus musculus [1]): 42 µmol/kg |
| N[C@H](Cc1nc2ccc(Cl)cc2cc1CP(=O)(O)O)C(=O)O | 7.24 | ED50 (Mus musculus [2]): 200 µmol/kg |
| CCOc1ccc2cc(CP(=O)(O)O)c(C[C@@H](N)C(=O)O)nc2c1 | 7.54 | ED50 (Mus musculus [3]): 150 µmol/kg |
| N[C@H](Cc1nc2cc(Cl)ccc2cc1CP(=O)(O)O)C(=O)O | 7.70 | ED50 (Mus musculus [1]): 60 µmol/kg |
